# Laboratory results from PubChem BioAssay (NCI).
#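 These data come from cells grown in 96-well plates and exposed to compound for 48 hours at five concentrations. Here, GI50 denotes the concentration required for 50% inhibition of growth. TGI denotes the concentration required for complete inhibition of growth.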
# Assays:
# Test in all cases: inhibition of tumour cell growth, NCI panel, 48 h
# A498 renal = test system: A498 renal
# A549 NSCLC = test system: A549 NSCLC
# ACHN renal = test system: ACHN renal
# BT-549 breast = test system: BT-549 breast
# CAKI-1 renal = test system: CAKI-1 renal
# CCRF-CEM leukemia = test system: CCRF-CEM leukemia
# COLO 205 colon = test system: COLO 205 colon
# DU-145 prostate = test system: DU-145 prostate
# EKVX NSCLC = test system: EKVX NSCLC
# HCC-2998 colon = test system: HCC-2998 colon
# HCT-116 colon = test system: HCT-116 colon
# HCT-15 colon = test system: HCT-15 colon
# HL-60(TB) leukemia = test system: HL-60(TB) leukemia
# HOP-62 NSCLC = test system: HOP-62 NSCLC
# HS 578T breast = test system: HS 578T breast
# HT29 colon = test system: HT29 colon
# IGROV1 ovarian = test system: IGROV1 ovarian
# KM12 colon = test system: KM12 colon
# LOX IMVI melanoma = test system: LOX IMVI melanoma
# M14 melanoma = test system: M14 melanoma
# MALME-3M melanoma = test system: MALME-3M melanoma
# MCF7 breast = test system: MCF7 breast
# MDA-MB-231 breast = test system: MDA-MB-231 breast
# MDA-MB-435 = test system: MDA-MB-435
# NCI-H23 lung = test system: NCI-H23 lung
# NCI-H460 lung = test system: NCI-H460 lung
# NCI-H522 lung = test system: NCI-H522 lung
# NCI/ADR-RES ovarian = test system: NCI/ADR-RES ovarian
# OVCAR-3 ovarian = test system: OVCAR-3 ovarian
# OVCAR-4 ovarian = test system: OVCAR-4 ovarian
# OVCAR-5 ovarian = test system: OVCAR-5 ovarian
# OVCAR-8 ovarian = test system: OVCAR-8 ovarian
# PC-3 prostate = test system: PC-3 prostate
# RPMI-8226 leukemia = test system: RPMI-8226 leukemia
# SF-268 CNS = test system: SF-268 CNS
# SF-295 CNS = test system: SF-295 CNS
# SF-539 CNS = test system: SF-539 CNS
# SK-MEL-2 melanoma = test system: SK-MEL-2 melanoma
# SK-MEL-28 melanoma = test system: SK-MEL-28 melanoma
# SK-OV-3 ovarian = test system: SK-OV-3 ovarian
# SN12C renal = test system: SN12C renal
# SNB-19 CNS = test system: SNB-19 CNS
# SNB-75 CNS = test system: SNB-75 CNS
# SR leukemia = test system: SR leukemia
# SW-620 colon = test system: SW-620 colon
# T-47D breast = test system: T-47D breast
# TK-10 renal = test system: TK-10 renal
# U251 CNS = test system: U251 CNS
# UACC-257 melanoma = test system: UACC-257 melanoma
# 786-0 renal = test system: 786-0 renal
# HOP-92 NSCLC = test system: HOP-92 NSCLC
# K-562 leukemia = test system: K-562 leukemia
# MOLT-4 leukemia = test system: MOLT-4 leukemia
# NCI-H226 lung = test system: NCI-H226 lung
# RXF 393 renal = test system: RXF 393 renal
# SK-MEL-5 melanoma = test system: SK-MEL-5 melanoma
# UACC-62 melanoma = test system: UACC-62 melanoma
# UO-31 renal = test system: UO-31 renal
smiles,measurement,setting,value
COC12C=C/C(=C(/C(=O)OCc3ccncn3)C(=O)CCCCCCCCC3(OC)C=C/C(=C(/C(=O)OCc4ccncn4)C(=O)CCCCCCCC1)O3)O2,GI50,A498 renal,252 nM
same,TGI,A498 renal,833 nM
same,GI50,A549 NSCLC,363 nM
same,TGI,A549 NSCLC,1490 nM
same,GI50,ACHN renal,302 nM
same,TGI,ACHN renal,1140 nM
same,GI50,BT-549 breast,225 nM
same,TGI,BT-549 breast,780 nM
same,GI50,CAKI-1 renal,349 nM
same,TGI,CAKI-1 renal,2210 nM
same,GI50,CCRF-CEM leukemia,251 nM
same,TGI,CCRF-CEM leukemia,1550 nM
same,GI50,COLO 205 colon,348 nM
same,TGI,COLO 205 colon,1320 nM
same,GI50,DU-145 prostate,484 nM
same,TGI,DU-145 prostate,2720 nM
same,GI50,EKVX NSCLC,350 nM
same,TGI,EKVX NSCLC,2340 nM
same,GI50,HCC-2998 colon,225 nM
same,TGI,HCC-2998 colon,450 nM
same,GI50,HCT-116 colon,266 nM
same,TGI,HCT-116 colon,1090 nM
same,GI50,HCT-15 colon,278 nM
same,TGI,HCT-15 colon,1120 nM
same,GI50,HL-60(TB) leukemia,298 nM
same,TGI,HL-60(TB) leukemia,1400 nM
same,GI50,HOP-62 NSCLC,225 nM
same,TGI,HOP-62 NSCLC,600 nM
same,GI50,HS 578T breast,402 nM
same,TGI,HS 578T breast,5110 nM
same,GI50,HT29 colon,266 nM
same,TGI,HT29 colon,689 nM
same,GI50,IGROV1 ovarian,418 nM
same,TGI,IGROV1 ovarian,4460 nM
same,GI50,KM12 colon,227 nM
same,TGI,KM12 colon,499 nM
same,GI50,LOX IMVI melanoma,211 nM
same,TGI,LOX IMVI melanoma,503 nM
same,GI50,M14 melanoma,286 nM
same,TGI,M14 melanoma,3230 nM
same,GI50,MALME-3M melanoma,228 nM
same,TGI,MALME-3M melanoma,629 nM
same,GI50,MCF7 breast,314 nM
same,TGI,MCF7 breast,11000 nM
same,GI50,MDA-MB-231 breast,335 nM
same,TGI,MDA-MB-231 breast,> 100000 nM
same,GI50,MDA-MB-435,194 nM
same,TGI,MDA-MB-435,405 nM
same,GI50,NCI-H23 lung,293 nM
same,TGI,NCI-H23 lung,944 nM
same,GI50,NCI-H460 lung,319 nM
same,TGI,NCI-H460 lung,1020 nM
same,GI50,NCI-H522 lung,207 nM
same,TGI,NCI-H522 lung,545 nM
same,GI50,NCI/ADR-RES ovarian,417 nM
same,TGI,NCI/ADR-RES ovarian,12600 nM
same,GI50,OVCAR-3 ovarian,317 nM
same,TGI,OVCAR-3 ovarian,903 nM
same,GI50,OVCAR-4 ovarian,317 nM
same,TGI,OVCAR-4 ovarian,2160 nM
same,GI50,OVCAR-5 ovarian,334 nM
same,TGI,OVCAR-5 ovarian,4810 nM
same,GI50,OVCAR-8 ovarian,331 nM
same,TGI,OVCAR-8 ovarian,14900 nM
same,GI50,PC-3 prostate,305 nM
same,TGI,PC-3 prostate,1090 nM
same,GI50,RPMI-8226 leukemia,263 nM
same,TGI,RPMI-8226 leukemia,995 nM
same,GI50,SF-268 CNS,314 nM
same,TGI,SF-268 CNS,1920 nM
same,GI50,SF-295 CNS,221 nM
same,TGI,SF-295 CNS,703 nM
same,GI50,SF-539 CNS,354 nM
same,TGI,SF-539 CNS,2660 nM
same,GI50,SK-MEL-2 melanoma,428 nM
same,TGI,SK-MEL-2 melanoma,5550 nM
same,GI50,SK-MEL-28 melanoma,317 nM
same,TGI,SK-MEL-28 melanoma,2510 nM
same,GI50,SK-OV-3 ovarian,409 nM
same,TGI,SK-OV-3 ovarian,3750 nM
same,GI50,SN12C renal,297 nM
same,TGI,SN12C renal,1120 nM
same,GI50,SNB-19 CNS,509 nM
same,TGI,SNB-19 CNS,17100 nM
same,GI50,SNB-75 CNS,1520 nM
same,TGI,SNB-75 CNS,17700 nM
same,GI50,SR leukemia,296 nM
same,TGI,SR leukemia,> 100000 nM
same,GI50,SW-620 colon,303 nM
same,TGI,SW-620 colon,1140 nM
same,GI50,T-47D breast,280 nM
same,TGI,T-47D breast,25700 nM
same,GI50,TK-10 renal,395 nM
same,TGI,TK-10 renal,2400 nM
same,GI50,U251 CNS,335 nM
same,TGI,U251 CNS,1540 nM
same,GI50,UACC-257 melanoma,261 nM
same,TGI,UACC-257 melanoma,882 nM
O=C1CCC/C=C\C[C@H]2C=C(Cl)C(=O)/C2=C/C[C@H](CCCCC(F)(F)F)OC(=O)CCC/C=C\C[C@H]2C=C(Cl)C(=O)/C2=C/C[C@H](CCCCC(F)(F)F)O1,GI50,786-0 renal,180 nM
same,TGI,786-0 renal,475 nM
same,GI50,A498 renal,965 nM
same,TGI,A498 renal,2120 nM
same,GI50,A549 NSCLC,429 nM
same,TGI,A549 NSCLC,2610 nM
same,GI50,ACHN renal,262 nM
same,TGI,ACHN renal,1020 nM
same,GI50,BT-549 breast,183 nM
same,TGI,BT-549 breast,502 nM
same,GI50,CCRF-CEM leukemia,178 nM
same,TGI,CCRF-CEM leukemia,884 nM
same,GI50,COLO 205 colon,246 nM
same,TGI,COLO 205 colon,859 nM
same,GI50,DU-145 prostate,264 nM
same,TGI,DU-145 prostate,1420 nM
same,GI50,EKVX NSCLC,283 nM
same,TGI,EKVX NSCLC,1180 nM
same,GI50,HCC-2998 colon,215 nM
same,TGI,HCC-2998 colon,640 nM
same,GI50,HCT-116 colon,157 nM
same,TGI,HCT-116 colon,430 nM
same,GI50,HCT-15 colon,297 nM
same,TGI,HCT-15 colon,1320 nM
same,GI50,HL-60(TB) leukemia,362 nM
same,TGI,HL-60(TB) leukemia,3600 nM
same,GI50,HOP-62 NSCLC,274 nM
same,TGI,HOP-62 NSCLC,1460 nM
same,GI50,HOP-92 NSCLC,199 nM
same,TGI,HOP-92 NSCLC,754 nM
same,GI50,HS 578T breast,267 nM
same,TGI,HS 578T breast,7500 nM
same,GI50,HT29 colon,241 nM
same,TGI,HT29 colon,807 nM
same,GI50,IGROV1 ovarian,231 nM
same,TGI,IGROV1 ovarian,791 nM
same,GI50,K-562 leukemia,184 nM
same,TGI,K-562 leukemia,7500 nM
same,GI50,KM12 colon,291 nM
same,TGI,KM12 colon,1380 nM
same,GI50,LOX IMVI melanoma,128 nM
same,TGI,LOX IMVI melanoma,268 nM
same,GI50,M14 melanoma,192 nM
same,TGI,M14 melanoma,614 nM
same,GI50,MALME-3M melanoma,210 nM
same,TGI,MALME-3M melanoma,694 nM
same,GI50,MCF7 breast,176 nM
same,TGI,MCF7 breast,973 nM
same,GI50,MDA-MB-231 breast,194 nM
same,TGI,MDA-MB-231 breast,504 nM
same,GI50,MDA-MB-435,147 nM
same,TGI,MDA-MB-435,307 nM
same,GI50,MOLT-4 leukemia,240 nM
same,TGI,MOLT-4 leukemia,1600 nM
same,GI50,NCI-H226 lung,263 nM
same,TGI,NCI-H226 lung,1230 nM
same,GI50,NCI-H23 lung,236 nM
same,TGI,NCI-H23 lung,868 nM
same,GI50,NCI-H460 lung,257 nM
same,TGI,NCI-H460 lung,1030 nM
same,GI50,NCI-H522 lung,166 nM
same,TGI,NCI-H522 lung,384 nM
same,GI50,NCI/ADR-RES ovarian,1570 nM
same,TGI,NCI/ADR-RES ovarian,7140 nM
same,GI50,OVCAR-3 ovarian,190 nM
same,TGI,OVCAR-3 ovarian,485 nM
same,GI50,OVCAR-4 ovarian,240 nM
same,TGI,OVCAR-4 ovarian,3930 nM
same,GI50,OVCAR-5 ovarian,340 nM
same,TGI,OVCAR-5 ovarian,2080 nM
same,GI50,OVCAR-8 ovarian,231 nM
same,TGI,OVCAR-8 ovarian,1090 nM
same,GI50,PC-3 prostate,192 nM
same,TGI,PC-3 prostate,574 nM
same,GI50,RPMI-8226 leukemia,177 nM
same,TGI,RPMI-8226 leukemia,528 nM
same,GI50,RXF 393 renal,134 nM
same,TGI,RXF 393 renal,279 nM
same,GI50,SF-268 CNS,241 nM
same,TGI,SF-268 CNS,1380 nM
same,GI50,SF-295 CNS,292 nM
same,TGI,SF-295 CNS,1190 nM
same,GI50,SF-539 CNS,257 nM
same,TGI,SF-539 CNS,1520 nM
same,GI50,SK-MEL-2 melanoma,329 nM
same,TGI,SK-MEL-2 melanoma,2110 nM
same,GI50,SK-MEL-28 melanoma,166 nM
same,TGI,SK-MEL-28 melanoma,419 nM
same,GI50,SK-MEL-5 melanoma,412 nM
same,TGI,SK-MEL-5 melanoma,1370 nM
same,GI50,SK-OV-3 ovarian,1720 nM
same,TGI,SK-OV-3 ovarian,5170 nM
same,GI50,SNB-19 CNS,353 nM
same,TGI,SNB-19 CNS,1670 nM
same,GI50,SNB-75 CNS,1230 nM
same,TGI,SNB-75 CNS,6240 nM
same,GI50,SR leukemia,198 nM
same,TGI,SR leukemia,748 nM
same,GI50,SW-620 colon,237 nM
same,TGI,SW-620 colon,659 nM
same,GI50,T-47D breast,204 nM
same,TGI,T-47D breast,1160 nM
same,GI50,TK-10 renal,346 nM
same,TGI,TK-10 renal,1890 nM
same,GI50,U251 CNS,226 nM
same,TGI,U251 CNS,772 nM
same,GI50,UACC-257 melanoma,685 nM
same,TGI,UACC-257 melanoma,2300 nM
same,GI50,UACC-62 melanoma,149 nM
same,TGI,UACC-62 melanoma,352 nM
same,GI50,UO-31 renal,133 nM
same,TGI,UO-31 renal,281 nM
